Data from BindingDB's records for doi:10.7270/Q2ST7N9K (Burnham Center For Chemical Genomics, 2010).

Target: Intestinal-type alkaline phosphatase (Homo sapiens, UniProt P09923)
Test: human intestinal alkaline phosphatase activators, dose response, biochemical, luminescence, uHTS hits (AID 463120)

Chain of Intestinal-type alkaline phosphatase (P09923 whole entry): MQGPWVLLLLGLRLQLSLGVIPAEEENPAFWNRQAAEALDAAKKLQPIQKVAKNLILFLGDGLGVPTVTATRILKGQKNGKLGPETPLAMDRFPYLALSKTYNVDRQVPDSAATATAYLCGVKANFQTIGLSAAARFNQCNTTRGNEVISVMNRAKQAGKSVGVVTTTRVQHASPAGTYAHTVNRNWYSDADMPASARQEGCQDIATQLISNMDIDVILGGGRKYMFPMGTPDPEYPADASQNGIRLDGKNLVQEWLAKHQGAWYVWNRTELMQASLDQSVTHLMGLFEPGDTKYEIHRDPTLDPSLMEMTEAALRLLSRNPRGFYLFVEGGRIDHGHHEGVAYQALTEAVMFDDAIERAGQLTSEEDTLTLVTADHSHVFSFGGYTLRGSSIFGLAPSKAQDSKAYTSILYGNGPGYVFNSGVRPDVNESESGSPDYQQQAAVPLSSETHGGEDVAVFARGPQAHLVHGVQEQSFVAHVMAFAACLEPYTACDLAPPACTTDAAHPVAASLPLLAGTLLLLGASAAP

Row | Compound | EC50 [µM]
1 | Cc1cc(Br)ccc1SCC(=O)OCC(=O)C(C#N)c1nc2ccccc2[nH]1 (stereo not drawn) [2-[(4-bromo-2-methylphenyl)thio]acetic acid [3-cyano-3-(1,3-dihydrobenzimidazol-2-ylidene)-2-oxopropyl] ester] | 13.4
2 | Cc1c(C(=O)NN=Cc2ccc(O)cc2O)[nH][nH]c1=O | 8.3
3 | COc1cccc(C=NNC(=O)c2[nH][nH]c(=O)c2C)c1O [N'-[(E)-(5-methoxy-6-oxidanylidene-cyclohexa-2,4-dien-1-ylidene)methyl]-4-methyl-5-oxidanylidene-1,4-dihydropyrazole-3-carbohydrazide] | 6.53
4 | C=c1[nH]n(-c2nc3ccccc3[nH]2)c(=O)c1=CN(C)C [(4E)-2-(1H-benzimidazol-2-yl)-4-(dimethylaminomethylidene)-5-methyl-pyrazol-3-one] | 12.3
5 | COc1cccc(CN=Nc2nn3cnnc3c3ccccc23)c1O | > 100
6 | CCOC(=O)c1c(C)[nH]c(C(=O)N/N=C/C2C=C([N+](=O)[O-])C=CC2=O)c1C (stereo not drawn) [ethyl 2,4-dimethyl-5-[[[(E)-(3-nitro-6-oxocyclohexa-2,4-dien-1-ylidene)methyl]amino]carbamoyl]-1H-pyrrole-3-carboxylate] | 12.1
7 | COc1ccc(Cc2cc(O)n(-c3ccc(C)cc3)c2O)cc1 [3-(4-Methoxy-benzyl)-1-p-tolyl-pyrrolidine-2,5-dione] | > 100

Further lines, results first:

Row | EC50 [µM] | Compound
8 | 13.6 | O=c1c2ccccc2nc(N=NCc2c(O)ccc3ccccc23)n1O [SMR000145705]
9 | 6.62 | CCc1ccc(CN=Nc2ncnc3nc[nH]c23)cc1 [MLS000419199]
10 | > 100 | Cc1ccc(O)c(N=CCC(=O)c2ccc(F)cc2)c1 [MLS001183581]
11 | 77 | Cn1c(C(C#N)C(=O)c2ccc(Br)s2)nc2ccccc21 (stereo not drawn) [MLS001167394]
12 | 9.21 | O=C(Nn1c(O)csc1=S)C(=O)Nn1c(O)csc1=S [SMR000349781]
13 | 8.21 | O=Nc1[nH]c(=O)c(CC(=O)c2ccccc2)nc1NO [SMR000539633]
